Data on twelve compounds can be found in PubChem BioAssay (NCI).

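Grown in 96-well plates, cells were treated for 48 hours with each compound at five concentrations. Insufficient inhibition: endpoint recorded as highest concentration tested. GI50: concentration for 50% inhibition of growth. The concentration for full growth arrest is given as TGI.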

Some test systems named below: CCRF-CEM leukemia; EKVX NSCLC; HCC-2998 colon; IGROV1 ovarian; OVCAR-3 ovarian; RPMI-8226 leukemia; SN12C renal; SNB-19 CNS; SNB-75 CNS; UACC-62 melanoma.
Common to all, as to assay: NCI anticancer screen, dose series, 48 h

As to `COc1cccc(CCC2CCCN(c3cc(C)nc(N)n3)C2)c1` (centres undefined), the GI50 in the assay with CCRF-CEM leukemia was 0.34 µM; in the assay with EKVX NSCLC, 0.558 µM; with HCC-2998 colon, 1.54 µM; in the assay on IGROV1 ovarian it was 0.666 µM; in the assay on OVCAR-3 ovarian, 0.242 µM; in the assay with RPMI-8226 leukemia it was 0.348 µM. Besides, the GI50 with SN12C renal was 0.635 µM; in the assay on SNB-19 CNS, 0.521 µM; in the assay with SNB-75 CNS it was 0.194 µM; in the assay with UACC-62 melanoma, 0.426 µM. Moreover, the TGI with CCRF-CEM leukemia was found to be 22.2 µM; in the assay with EKVX NSCLC, 27.7 µM; in the assay on HCC-2998 colon, 7.52 µM; in the assay on IGROV1 ovarian it was 12.8 µM; in the assay with OVCAR-3 ovarian it was 0.675 µM; in the assay on RPMI-8226 leukemia, 3.13 µM. The TGI in the assay with SN12C renal was 11.5 µM; with SNB-19 CNS, 16 µM; with SNB-75 CNS, 3.46 µM; with UACC-62 melanoma, 5.49 µM.
Take `CC[C@H](NC(=O)[C@H]1CCCCN1C)C(=O)N(C)[C@H](C[C@@H](OC(C)=O)c1nc(C(=O)N[C@@H](Cc2ccccc2)C[C@H](C)C(=O)O)cs1)C(C)C`: the GI50 was 0.00383 µM with CCRF-CEM leukemia; 0.01 µM with EKVX NSCLC; 0.0112 µM in the assay with HCC-2998 colon; 0.0145 µM with IGROV1 ovarian; under 0.00143 µM in the assay with OVCAR-3 ovarian; 0.00531 µM in the assay with RPMI-8226 leukemia. Further, the GI50 was 0.00993 µM in the assay with SN12C renal, 0.00568 µM in the assay with SNB-19 CNS, 0.00528 µM in the assay with SNB-75 CNS and 0.00161 µM in the assay with UACC-62 melanoma. For the same compound, the TGI with CCRF-CEM leukemia was over 14.3 µM; in the assay with EKVX NSCLC it was over 14.3 µM; with HCC-2998 colon it was over 14.3 µM; with IGROV1 ovarian, over 14.3 µM; in the assay with OVCAR-3 ovarian, 0.0286 µM; with RPMI-8226 leukemia, over 14.3 µM. Besides, the TGI with SN12C renal, with SNB-19 CNS, with SNB-75 CNS and with UACC-62 melanoma was over 14.3 µM throughout.
With `Cc1ccc(Cl)cc1Nc1nc(C(F)(F)F)ccc1C(=O)N/N=C/c1cccnc1`, the GI50 with CCRF-CEM leukemia is 4.14 µM; in the assay on EKVX NSCLC, 1.32 µM; with HCC-2998 colon, 2.03 µM; in the assay with IGROV1 ovarian, 4.22 µM; in the assay on OVCAR-3 ovarian, 2.45 µM; in the assay with RPMI-8226 leukemia, 2.94 µM. For the same compound, the GI50 in the assay on SN12C renal was 4.75 µM; in the assay with SNB-19 CNS, 3.37 µM; with SNB-75 CNS, 4.93 µM; with UACC-62 melanoma it was 3.25 µM. For the same compound, the TGI with CCRF-CEM leukemia is over 100 µM; in the assay on EKVX NSCLC it was 9.01 µM; in the assay on HCC-2998 colon, 11.1 µM; in the assay with IGROV1 ovarian it was 15.8 µM; in the assay with OVCAR-3 ovarian it was 14.3 µM; in the assay with RPMI-8226 leukemia it was over 32.5 µM. In addition, the TGI worked out at 21.9 µM in the assay with SN12C renal, 14.4 µM with SNB-19 CNS, 19.5 µM in the assay on SNB-75 CNS and 13.7 µM in the assay on UACC-62 melanoma.
In the case of `Cc1cc(Cl)cc2c(N=Nc3ccc(S(N)(=O)=O)cc3)c(O)[nH]c12`, the GI50 in the assay with CCRF-CEM leukemia, in the assay with EKVX NSCLC, in the assay with HCC-2998 colon, in the assay with IGROV1 ovarian, in the assay with OVCAR-3 ovarian and with RPMI-8226 leukemia was over 25 µM each time. Moreover, the GI50 in the assay on SN12C renal is over 25 µM; in the assay with SNB-19 CNS, over 25 µM; in the assay with SNB-75 CNS, over 15.6 µM; in the assay with UACC-62 melanoma it was over 25 µM. In addition, the TGI in the assay on CCRF-CEM leukemia, in the assay with EKVX NSCLC, with HCC-2998 colon, in the assay with IGROV1 ovarian, in the assay with OVCAR-3 ovarian and in the assay on RPMI-8226 leukemia was over 25 µM throughout. Also, the TGI with SN12C renal, in the assay with SNB-19 CNS, in the assay on SNB-75 CNS and in the assay with UACC-62 melanoma was over 25 µM throughout.
Consider `N#Cc1c(NC(=O)NCc2ccccc2)sc2c1CCCC2`, for which the GI50 in the assay on CCRF-CEM leukemia was 0.459 µM; with EKVX NSCLC it was 2 µM; in the assay on HCC-2998 colon it was 1.72 µM; with IGROV1 ovarian it was 0.749 µM; in the assay on OVCAR-3 ovarian it was 0.344 µM; with RPMI-8226 leukemia, 0.538 µM. The GI50 with SN12C renal is 0.813 µM; in the assay with SNB-19 CNS, 0.675 µM; in the assay on SNB-75 CNS it was 0.249 µM; in the assay with UACC-62 melanoma, 0.455 µM. Further, the TGI was over 100 µM in the assay on CCRF-CEM leukemia; over 100 µM in the assay on EKVX NSCLC; over 100 µM in the assay with HCC-2998 colon; over 100 µM in the assay on IGROV1 ovarian; 1.87 µM in the assay with OVCAR-3 ovarian; over 100 µM in the assay on RPMI-8226 leukemia. The TGI with SN12C renal was over 100 µM; in the assay with SNB-19 CNS, over 100 µM; with SNB-75 CNS, 36 µM; with UACC-62 melanoma, over 100 µM.
As to `CSC1=Nc2c(c(C)c(-c3ccccc3)n2CCCN2CCCCC2)C2=NC(=O)C[C@H](C)N12`, the GI50 is 2.68 µM with CCRF-CEM leukemia; 3.06 µM with EKVX NSCLC; 3.18 µM in the assay on HCC-2998 colon; 2.25 µM in the assay on IGROV1 ovarian; 2.55 µM in the assay on OVCAR-3 ovarian; 0.505 µM in the assay with RPMI-8226 leukemia. The GI50 in the assay with SN12C renal was 2.42 µM; with SNB-19 CNS, 3.08 µM; with SNB-75 CNS, 4.98 µM; with UACC-62 melanoma, 3.17 µM. Further, the TGI was 10.2 µM in the assay with CCRF-CEM leukemia; over 44.7 µM in the assay on EKVX NSCLC; 12.7 µM in the assay on HCC-2998 colon; 13.5 µM in the assay on IGROV1 ovarian; 11 µM in the assay with OVCAR-3 ovarian; 2.25 µM with RPMI-8226 leukemia. In addition, the TGI with SN12C renal is 20.9 µM; in the assay with SNB-19 CNS it was over 94.6 µM; in the assay with SNB-75 CNS, 32 µM; in the assay on UACC-62 melanoma, 15.4 µM.
For the compound `Nc1c(-c2cn(Cc3ccccc3)c3ccccc23)[n+]([O-])c2ccccc2[n+]1[O-]`, the TGI was over 100 µM in the assay on CCRF-CEM leukemia; over 100 µM in the assay with EKVX NSCLC; over 100 µM in the assay on HCC-2998 colon; over 100 µM with IGROV1 ovarian; 68.4 µM in the assay with OVCAR-3 ovarian; over 100 µM with RPMI-8226 leukemia. Besides, the TGI with SN12C renal is over 100 µM; with SNB-19 CNS, over 100 µM; in the assay on SNB-75 CNS it was 61.6 µM; in the assay with UACC-62 melanoma it was over 100 µM.
With `Cc1c(O)c2ccccc2oc1=O`, the TGI in the assay with CCRF-CEM leukemia, in the assay on EKVX NSCLC, in the assay with HCC-2998 colon, in the assay on IGROV1 ovarian, in the assay with OVCAR-3 ovarian and in the assay on RPMI-8226 leukemia was over 100 µM in each case. For the same compound, the TGI in the assay with SN12C renal, in the assay on SNB-19 CNS, in the assay with SNB-75 CNS and in the assay with UACC-62 melanoma was over 100 µM in each case.
Regarding `C=C(C)[C@@H]1CC[C@]2(COCCC#N)CC[C@]3(C)[C@H](CC[C@@H]4[C@@](C)(CCCNCCC#N)[C@H](C(=C)C)CC[C@]43C)[C@@H]12`, the GI50 in the assay with CCRF-CEM leukemia is 10.8 µM; with EKVX NSCLC, 46.9 µM; in the assay on HCC-2998 colon, 9.08 µM; with IGROV1 ovarian, 13.1 µM; with OVCAR-3 ovarian, 9.66 µM; with RPMI-8226 leukemia, 10.7 µM. In addition, the GI50 is 10 µM in the assay on SN12C renal, 26.4 µM in the assay with SNB-19 CNS, over 50 µM in the assay with SNB-75 CNS and 8.81 µM with UACC-62 melanoma. Also, the TGI with CCRF-CEM leukemia is 38.5 µM; in the assay on EKVX NSCLC, over 50 µM; in the assay on HCC-2998 colon, 20.1 µM; in the assay on IGROV1 ovarian it was over 50 µM; in the assay with OVCAR-3 ovarian, 22.4 µM; with RPMI-8226 leukemia it was 31.4 µM. In addition, the TGI was 29.2 µM in the assay on SN12C renal, over 50 µM in the assay with SNB-19 CNS, over 50 µM in the assay with SNB-75 CNS and 23.1 µM in the assay with UACC-62 melanoma.
As for `CCN(CC)CC(C)(C)C(=O)/C=C/c1cccc(/C=C/C(=O)C(C)(C)CN(CC)CC)c1`, the TGI with CCRF-CEM leukemia was 11.6 µM; with EKVX NSCLC it was 2.53 µM; with HCC-2998 colon it was 2.51 µM; in the assay on IGROV1 ovarian, 2.23 µM; with OVCAR-3 ovarian, 2.31 µM; in the assay on RPMI-8226 leukemia it was over 100 µM. The TGI was 1.04 µM in the assay on SN12C renal, 3.89 µM with SNB-19 CNS, 1.19 µM in the assay with SNB-75 CNS and 3.16 µM in the assay with UACC-62 melanoma.
Regarding `NC1=CC(=O)c2cccnc2C1=O`, the GI50 in the assay on CCRF-CEM leukemia is 1.19 µM; in the assay with EKVX NSCLC, 1.58 µM; with HCC-2998 colon it was 5.82 µM; with IGROV1 ovarian, 1.28 µM; in the assay with OVCAR-3 ovarian, 1.44 µM; with RPMI-8226 leukemia it was 1.81 µM. Moreover, the GI50 was 1.49 µM in the assay on SN12C renal, 1.84 µM in the assay on SNB-19 CNS, 1.21 µM with SNB-75 CNS and 1.47 µM with UACC-62 melanoma. Also, the TGI in the assay on CCRF-CEM leukemia came out at 4.88 µM; with EKVX NSCLC, 3.31 µM; with HCC-2998 colon, 19.8 µM; in the assay on IGROV1 ovarian it was 3.29 µM; in the assay with OVCAR-3 ovarian, 3.16 µM; with RPMI-8226 leukemia, 4.58 µM. Further, the TGI in the assay on SN12C renal is 2.94 µM; in the assay on SNB-19 CNS it was 3.88 µM; in the assay with SNB-75 CNS, 2.58 µM; with UACC-62 melanoma, 2.87 µM.
For `COC(=O)[C@@H](C)C[C@H](Cc1cn(C)c2ccccc12)NC(=O)c1csc([C@@H](C[C@H](C(C)C)N(C)C(=O)[C@@H](NC(=O)[C@H]2CCCCN2C)C(C)C)OC(C)=O)n1`, the GI50 in the assay with CCRF-CEM leukemia was 0.00779 µM; with EKVX NSCLC it was 0.044 µM; with HCC-2998 colon, 0.0925 µM; with IGROV1 ovarian it was 0.0289 µM; with OVCAR-3 ovarian, 0.0051 µM; with RPMI-8226 leukemia, 0.00776 µM. The GI50 in the assay on SN12C renal is 0.0232 µM; in the assay on SNB-19 CNS it was 0.00883 µM; with SNB-75 CNS, 0.00887 µM; in the assay on UACC-62 melanoma, 0.00745 µM. The TGI in the assay on CCRF-CEM leukemia, with EKVX NSCLC, in the assay with HCC-2998 colon, in the assay with IGROV1 ovarian, in the assay with RPMI-8226 leukemia and in the assay on SN12C renal was over 16.7 µM throughout. Also, the TGI is over 16.7 µM in the assay with SNB-19 CNS, over 14 µM with SNB-75 CNS and over 16.7 µM in the assay with UACC-62 melanoma.
